Consider eleven compounds from PubChem BioAssay (NCI).

Each structure is given as a SMILES string.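 Five concentrations, 48 hours, 96-well plates. At the GI50, growth is halved. The concentration for full growth arrest is given as TGI.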

Some test systems named below: SNB-75 CNS; SW-620 colon; M14 melanoma; PC-3 prostate; SN12C renal; UACC-257 melanoma; CCRF-CEM leukemia; A549 NSCLC.
Holding throughout (assay): growth of human tumour cells (NCI), 48 h

`CN1CCC(n2cnc(-c3ccc(F)cc3)c2-c2ccnc(Nc3ccccc3)n2)CC1`: the GI50 was 7.22 µM in the assay on SNB-75 CNS; 7.88 µM with SW-620 colon; 5.58 µM in the assay with M14 melanoma; 12.2 µM with PC-3 prostate; 7.09 µM in the assay with SN12C renal; 4.22 µM in the assay on UACC-257 melanoma. Also, the GI50 is 12.1 µM in the assay with CCRF-CEM leukemia and 2.81 µM with A549 NSCLC. The TGI with SNB-75 CNS is 24.8 µM; in the assay on SW-620 colon, more than 25 µM; in the assay on M14 melanoma it was 14.7 µM; with PC-3 prostate, more than 25 µM; with SN12C renal it was more than 25 µM; in the assay with UACC-257 melanoma, 9.25 µM. In addition, the TGI in the assay on CCRF-CEM leukemia and in the assay on A549 NSCLC was more than 25 µM throughout.

With `O=C(/C=C/c1cc(O)ccc1O)c1ccc(Cl)cc1`, the GI50 in the assay on SW-620 colon is 61.9 µM; in the assay with M14 melanoma it was 19.8 µM; in the assay with PC-3 prostate, 90.4 µM; with SN12C renal it was 18.1 µM; in the assay on UACC-257 melanoma, 51.3 µM; in the assay on A549 NSCLC it was 31.8 µM. Further, the TGI was more than 100 µM in the assay with SW-620 colon; 47.1 µM in the assay with M14 melanoma; more than 100 µM in the assay with PC-3 prostate; 44.7 µM in the assay with SN12C renal; more than 100 µM in the assay with UACC-257 melanoma; more than 100 µM in the assay on A549 NSCLC.

For `CCN1C(=O)N[C@H]2[C@@H]3NC(=O)c4ccc(Cl)n4[C@@H]3C[C@]21O`, the GI50 was 0.663 µM in the assay with SNB-75 CNS; 0.511 µM in the assay on SW-620 colon; 0.352 µM in the assay on M14 melanoma; 1.68 µM in the assay with PC-3 prostate; 0.42 µM in the assay on SN12C renal; 0.224 µM with CCRF-CEM leukemia. Also, the GI50 with A549 NSCLC was 1.74 µM. The TGI with SNB-75 CNS is 7.63 µM; in the assay on SW-620 colon it was more than 100 µM; in the assay on M14 melanoma, 2.66 µM; in the assay with PC-3 prostate, 11.2 µM; with SN12C renal, 9.13 µM; with CCRF-CEM leukemia, 1.25 µM. The same compound gave a TGI in the assay with A549 NSCLC of 17.6 µM.

Consider `CCOC(=O)CC1C(CNC(=O)NC)OC(n2cnc3c(NC(=O)Nc4ccccc4)ncnc32)C1O[Si](C)(C)C(C)(C)C` (configuration not stated), for which the GI50 with SNB-75 CNS was 4.56 µM; in the assay on SW-620 colon, 4.8 µM; in the assay with M14 melanoma, 2.51 µM; in the assay with PC-3 prostate, 2.25 µM; with SN12C renal it was 9.1 µM; in the assay with UACC-257 melanoma, 5.68 µM. Moreover, the results for the GI50 in the assay with CCRF-CEM leukemia and in the assay with A549 NSCLC were 6.69 µM and 4.18 µM, respectively. Besides, the TGI in the assay with SNB-75 CNS was more than 100 µM; in the assay on SW-620 colon, 28.4 µM; in the assay with M14 melanoma it was 11.6 µM; in the assay with PC-3 prostate it was 4.85 µM; with SN12C renal, more than 100 µM; with UACC-257 melanoma, more than 100 µM. The values for the TGI with CCRF-CEM leukemia and in the assay with A549 NSCLC were 88.6 µM and 19.2 µM, respectively.

With `CCN(CC)CCOc1ccccc1-n1c(C)ccc1-c1ccccc1`, the GI50 with SNB-75 CNS was 10.3 µM; in the assay on SW-620 colon, 15.2 µM; in the assay on M14 melanoma, 17 µM; in the assay with PC-3 prostate, 12.4 µM; in the assay with SN12C renal, 15.4 µM; in the assay on UACC-257 melanoma, 16.2 µM. For the same compound, the figures for the GI50 in the assay with CCRF-CEM leukemia and with A549 NSCLC were 18.7 µM and 16.3 µM, respectively. Also, the TGI in the assay on SNB-75 CNS is 22.4 µM; with SW-620 colon, 31.8 µM; in the assay with M14 melanoma, 34.2 µM; in the assay with PC-3 prostate, 29.2 µM; in the assay on SN12C renal, 30.5 µM; with UACC-257 melanoma, 31.8 µM. Further, the TGI in the assay with CCRF-CEM leukemia turned out to be 48.6 µM; with A549 NSCLC it was 32.1 µM.

As for `Cc1ccc(Nn2c(SCC(=O)Nc3nc(-c4ccccc4)cs3)nc(C)c2C)cc1`, the GI50 in the assay on SNB-75 CNS was 2.81 µM; in the assay on SW-620 colon it was 8.3 µM; in the assay with M14 melanoma it was 3.7 µM; in the assay with SN12C renal, 3.2 µM; with UACC-257 melanoma it was 2.12 µM; in the assay on A549 NSCLC, 3.03 µM. In addition, the TGI in the assay on SNB-75 CNS is more than 100 µM; in the assay on SW-620 colon it was more than 100 µM; with M14 melanoma, 48.6 µM; with SN12C renal, 14.2 µM; in the assay with UACC-257 melanoma it was 9.29 µM; in the assay on A549 NSCLC it was more than 100 µM.

For the compound `Cn1c(=S)c2[nH]c(SCc3cccnc3)nc2n(C)c1=O`, the TGI in the assay with SNB-75 CNS, with SW-620 colon, in the assay on M14 melanoma, in the assay with PC-3 prostate, in the assay with SN12C renal and with UACC-257 melanoma was more than 100 µM in each case. In addition, in the assay on A549 NSCLC, the TGI was more than 100 µM.

As to `CCOc1cc(CCNC)c2c(ccc3ccc(OC)c(O)c32)c1OC`, the TGI was 32.3 µM in the assay with SNB-75 CNS; 28.5 µM in the assay with M14 melanoma; 27.6 µM in the assay with PC-3 prostate; 36.7 µM with SN12C renal; 29.6 µM in the assay with UACC-257 melanoma; more than 100 µM in the assay with CCRF-CEM leukemia. Besides, the TGI in the assay with A549 NSCLC worked out at 39.6 µM.

With `O=CCC(O)C(O)C(O)CO` (configuration not stated), the GI50 is more than 100 µM in the assay with SW-620 colon; more than 100 µM in the assay on M14 melanoma; more than 100 µM in the assay with PC-3 prostate; more than 100 µM in the assay with SN12C renal; 55.6 µM in the assay with UACC-257 melanoma; more than 100 µM with CCRF-CEM leukemia. For the same compound, the GI50 in the assay with A549 NSCLC was more than 100 µM. The TGI in the assay with SW-620 colon, in the assay on M14 melanoma, in the assay on PC-3 prostate, in the assay with SN12C renal, with UACC-257 melanoma and with CCRF-CEM leukemia was more than 100 µM in each case. The TGI with A549 NSCLC was more than 100 µM.

Consider `COc1ncc(-c2ccc3ncnc(Nc4cccc(Cl)c4)c3c2)cc1NS(C)(=O)=O`, for which the GI50 in the assay with SNB-75 CNS was 0.158 µM; in the assay with SW-620 colon, 3.22 µM; in the assay on M14 melanoma, 2.81 µM; in the assay with PC-3 prostate, 2.02 µM; in the assay with SN12C renal, 1.76 µM; in the assay on CCRF-CEM leukemia, 2.81 µM. Besides, the GI50 in the assay with A549 NSCLC is 1.2 µM. Also, the TGI in the assay with SNB-75 CNS amounted to 5.82 µM; in the assay on SW-620 colon, 17.7 µM; with M14 melanoma, 19.2 µM; in the assay on PC-3 prostate it was 16.6 µM; in the assay on SN12C renal it was 31.8 µM; in the assay on CCRF-CEM leukemia, 43.2 µM. In the assay on A549 NSCLC, this compound yielded a TGI of 13.2 µM.

As for `O=C1c2ccccc2-c2c1c1ccc([N+](=O)[O-])cc1c(=O)n2CCN1CCOCC1`, the GI50 was 35.5 µM with SNB-75 CNS; 40.5 µM in the assay on SW-620 colon; more than 100 µM in the assay on M14 melanoma; more than 100 µM in the assay on PC-3 prostate; 59.3 µM with SN12C renal; 20.1 µM in the assay with CCRF-CEM leukemia. The GI50 in the assay on A549 NSCLC was more than 100 µM. Moreover, the TGI in the assay with SNB-75 CNS, in the assay with SW-620 colon, in the assay on M14 melanoma, in the assay with PC-3 prostate, with SN12C renal and in the assay with CCRF-CEM leukemia was more than 100 µM throughout. The TGI with A549 NSCLC was more than 100 µM.
